Assay results as given in patent US20250098679A1, “HERBICIDAL PYRIDONE DERIVATIVES” (SYNGENTA CROP PROTECTION AG, priority 2021, published 2025).

How the values were obtained:
Type in all cases: in vivo
[1] = system: Amaranthus retoflexus (AMARE); test: Pre-emergence Test, Amaranthus retoflexus (AMARE); settings: evaluated after 13 days
Setaria faberi (SETFA) = test: Post-emergence Test, Setaria faberi (SETFA); set-up: key to percentage damage caused to the plant, SETFA (five-point scale): 5=81-100%, 4=61-80%, 3=41-60%, 2=21-40%, 1=0-20% damage; settings: 1000 g/ha, evaluated after 13 days
Outline: (§1)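 Pots sprayed with compound in acetone/water (50:50) with 0.5% Tween 20, at 1000 g/ha unless noted, glasshouse 24/16 °C, 14 h light, 65% humidity. Damage scored 13 days after spraying on a five-point scale (5=81-100% to 1=0-20%).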

[2] = system: Ipomoea hederacea (IPOHE); test: Pre-emergence Test, Ipomoea hederacea (IPOHE); settings: evaluated after 13 days
[3] = system: Echinochloa crus-galli (ECHCG); test: Pre-emergence Test, Echinochloa crus-galli (ECHCG); settings: evaluated after 13 days
[4] = system: Echinochloa crus-galli (ECHCG); test: Post-emergence Test, Echinochloa crus-galli (ECHCG); set-up: key to percentage damage caused to the plant, ECHCG (five-point scale): 5=81-100%, 4=61-80%, 3=41-60%, 2=21-40%, 1=0-20% damage; settings: 250 g/Ha, evaluated after 13 days
Outline: as §1

Zea mays (ZEAMX) [5] = test: Pre-emergence Test, Zea mays (ZEAMX); settings: evaluated after 13 days
[6] = system: Amaranthus palmeri (AMAPA); test: Post-emergence Test, Amaranthus palmeri (AMAPA); set-up: key: 5=81-100%, 4=61-80%, 3=41-60%, 2=21-40%, 1=0-20% damage; settings: evaluated after 13 days
Outline: as §1

Zea mays (ZEAMX) [7] = test: Post-emergence Test, Zea mays (ZEAMX); set-up: key to percentage damage caused to the plant, ZEAMX (five-point scale): 5=81-100%, 4=61-80%, 3=41-60%, 2=21-40%, 1=0-20% damage; settings: evaluated after 13 days
Outline: as §1

[8] = system: Ipomoea hederacea (IPOHE); test: Post-emergence Test, Ipomoea hederacea (IPOHE); set-up: key to percentage damage caused to the plant, IPOHE (five-point scale): 5=81-100%, 4=61-80%, 3=41-60%, 2=21-40%, 1=0-20% damage; settings: evaluated after 13 days
Outline: as §1

[9] = system: Amaranthus retoflexus (AMARE); test: Post-emergence Test, Amaranthus retoflexus (AMARE); set-up: key to percentage damage caused to the plant, AMARE (five-point scale): 5=81-100%, 4=61-80%, 3=41-60%, 2=21-40%, 1=0-20% damage; settings: evaluated after 13 days
Outline: as §1

[10] = system: Amaranthus palmeri (AMAPA); test: Pre-emergence Test, Amaranthus palmeri (AMAPA); settings: evaluated after 13 days

Structure (SMILES) | Pre-emergence Test AMARE, percentage damage caused to the plant (five-point scale) ([1]; 1000 g/ha) | percentage damage caused to the plant, SETFA (five-point scale) (Setaria faberi (SETFA)) | Pre-emergence Test IPOHE, percentage damage caused to the plant (five-point scale) ([2]; 1000 g/ha) | Pre-emergence Test ECHCG, percentage damage caused to the plant (five-point scale) ([3]; 1000 g/ha) | percentage damage caused to the plant, ECHCG (five-point scale) [4] | Pre-emergence Test ZEAMX, percentage damage caused to the plant (five-point scale) (Zea mays (ZEAMX) [5]; 1000 g/ha) | percentage damage caused to the plant, AMAPA (five-point scale) ([6]; 250 g/Ha) | percentage damage caused to the plant, AMAPA (five-point scale) ([6]; 1000 g/ha) | percentage damage caused to the plant, ZEAMX (five-point scale) (Zea mays (ZEAMX) [7]; 250 g/Ha) | percentage damage caused to the plant, ZEAMX (five-point scale) (Zea mays (ZEAMX) [7]; 1000 g/ha) | percentage damage caused to the plant, IPOHE (five-point scale) ([8]; 250 g/Ha) | percentage damage caused to the plant, IPOHE (five-point scale) ([8]; 1000 g/ha) | percentage damage caused to the plant, AMARE (five-point scale) ([9]; 250 g/Ha) | percentage damage caused to the plant, AMARE (five-point scale) ([9]; 1000 g/ha) | Pre-emergence Test AMAPA, percentage damage caused to the plant (five-point scale) ([10]; 1000 g/ha) | Pre-emergence Test AMARE, percentage damage caused to the plant (five-point scale) ([1]; 250 g/Ha (*)) | Pre-emergence Test IPOHE, percentage damage caused to the plant (five-point scale) ([2]; 250 g/Ha (*)) | Pre-emergence Test ECHCG, percentage damage caused to the plant (five-point scale) ([3]; 250 g/Ha (*)) | Pre-emergence Test ZEAMX, percentage damage caused to the plant (five-point scale) (Zea mays (ZEAMX) [5]; 250 g/Ha (*)) | Pre-emergence Test AMAPA, percentage damage caused to the plant (five-point scale) ([10]; 250 g/Ha (*))
CCn1c(Cn2ccc(-c3ccc(F)cc3)n2)cc(=O)c(C(=O)O)c1-c1ccc(Cl)c(Cl)c1 [Compound 193, 2-(3,4-dichlorophenyl)-1-ethyl-6-[[3-(4-fluorophenyl)pyrazol-1-yl]methyl]-4-oxo-pyridine-3-carboxylic acid] | 0 | 0 | 1 (1=0-20%) | 0 | 3 (3=41-60%) | 0 | 0 | 1 (1=0-20%) | 0 | 1 (1=0-20%) | 0 | 2 (2=21-40%) | 0 | 1 (1=0-20%) | 0 | – | – | – | – | –
CCn1c(Cn2nc(C(F)F)cc2C)cc(=O)c(C(=O)O)c1-c1ccc(Cl)c(Cl)c1 [Compound 187, 2-(3,4-dichlorophenyl)-6-[[3-(difluoromethyl)-5-methyl-pyrazol-1-yl]methyl]-1-ethyl-4-oxo-pyridine-3-carboxylic acid] | 0 | 1 (1=0-20%) | 3 (3=41-60%) | 1 (1=0-20%) | 2 (2=21-40%) | 1 (1=0-20%) | 0 | 1 (1=0-20%) | 0 | 1 (1=0-20%) | 1 (1=0-20%) | 4 (4=61-80%) | 0 | 1 (1=0-20%) | 0 | – | – | – | – | –
CCn1c(Cn2ccc(OC(C)C)n2)cc(=O)c(C(=O)O)c1-c1ccc(Cl)c(Cl)c1 [Compound 166, 2-(3,4-dichlorophenyl)-1-ethyl-6-[(3-isopropoxypyrazol-1-yl)methyl]-4-oxo-pyridine-3-carboxylic acid] | 1 (1=0-20%) | 5 (5=81-100%) | 4 (4=61-80%) | 5 (5=81-100%) | 4 (4=61-80%) | 5 (5=81-100%) | 1 (1=0-20%) | 1 (1=0-20%) | 2 (2=21-40%) | 4 (4=61-80%) | 2 (2=21-40%) | 4 (4=61-80%) | 0 | 1 (1=0-20%) | 1 (1=0-20%) | 0 | 2 (2=21-40%) | 5 (5=81-100%) | 1 (1=0-20%) | 0
